Structures are written as SMILES. Where a name gives a salt, the structure may show the parent alone. Active and inactive are the calls of the source.

Test [1] concerns the target T1, Heat shock factor protein 1 (Mus musculus, UniProt P38532).
T1 sequence (P38532 whole entry): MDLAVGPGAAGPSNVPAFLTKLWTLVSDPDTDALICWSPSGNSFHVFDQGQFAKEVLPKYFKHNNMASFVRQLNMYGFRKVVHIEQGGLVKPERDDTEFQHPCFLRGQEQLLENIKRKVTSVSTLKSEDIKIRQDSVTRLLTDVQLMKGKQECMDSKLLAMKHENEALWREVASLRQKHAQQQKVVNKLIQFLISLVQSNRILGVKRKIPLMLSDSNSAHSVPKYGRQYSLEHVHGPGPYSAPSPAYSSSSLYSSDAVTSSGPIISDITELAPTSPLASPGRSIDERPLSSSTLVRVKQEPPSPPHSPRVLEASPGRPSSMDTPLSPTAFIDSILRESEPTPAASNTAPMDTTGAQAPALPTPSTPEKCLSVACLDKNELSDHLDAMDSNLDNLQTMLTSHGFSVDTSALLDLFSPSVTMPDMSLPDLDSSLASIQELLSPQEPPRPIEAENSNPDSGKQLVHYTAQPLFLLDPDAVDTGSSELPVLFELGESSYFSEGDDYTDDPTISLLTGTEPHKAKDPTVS
In words: inhibition of MG132-induced HSE-luciferase signal, confirmation, cell-based, NIH3T3, luminescence, dose retest (AID 2382).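 Further: NIH3T3 fibroblasts with HSF1-driven luciferase reporter stressed by proteasome inhibitor MG132; luminescence from HSF1-driven luciferase expression after 8 hours of MG132 stress.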 The format is functional.

Test [2] in a line: C. albicans growth with fluconazole, confirmation, fluorescence, retest (AID 2467). In kind it is functional, cell-based.
The nature of test [3]: NIH-3T3 fibroblast cytotoxicity, dose response, cytotoxicity control, cell-based, fluorescence, Alamar Blue, secondary assay (AID 2327).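 Further: NIH-3T3 mouse fibroblasts cultured with fluconazole at 8 µg/mL.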 In kind it is functional. A general note: Resazurin is reduced to fluorescent resorufin, in cell work by metabolically active cells.
The target of test [4] is T2, Cytochrome P450 1A2 (Homo sapiens, UniProt P05177).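 Further: PubChem cytochrome P450 panel assay, CYP1A2 panel member.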
T2 sequence (P05177 whole entry): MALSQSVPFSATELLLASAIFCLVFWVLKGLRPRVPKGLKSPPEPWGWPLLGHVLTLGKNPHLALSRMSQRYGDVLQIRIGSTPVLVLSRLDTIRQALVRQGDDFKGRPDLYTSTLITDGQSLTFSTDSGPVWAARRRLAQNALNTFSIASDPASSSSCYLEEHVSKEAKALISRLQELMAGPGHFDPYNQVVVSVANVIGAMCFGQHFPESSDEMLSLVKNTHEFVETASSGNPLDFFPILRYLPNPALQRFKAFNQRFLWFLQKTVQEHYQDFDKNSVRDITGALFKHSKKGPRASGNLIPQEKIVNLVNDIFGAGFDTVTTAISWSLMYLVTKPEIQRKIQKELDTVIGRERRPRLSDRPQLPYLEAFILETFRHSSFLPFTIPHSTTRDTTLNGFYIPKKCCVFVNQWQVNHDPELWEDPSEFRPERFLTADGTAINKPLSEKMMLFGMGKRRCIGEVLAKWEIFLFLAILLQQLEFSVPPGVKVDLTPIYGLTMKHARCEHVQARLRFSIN

Test [5] addresses Cytochrome P450 2C9 (Homo sapiens, UniProt P11712).
Test [6] concerns Streptococcus sp. 'group A'. In words: growth inhibition of control SK(-) GAS strain, dose response, counter-screen for streptokinase expression inhibitor project, luminescence, kanamycin, BacTiterGlo, confirmation (AID 1900). The format is functional, organism-based. In general terms: The purpose of a counterscreen is to sort out artefacts and off-target activity.
Test [7] deals with Streptococcus. Nature of the test: Group A Streptococcus viability loss, dose response, counter-screen for streptokinase expression inhibitor project, luminescence, BacTiterGlo (AID 1915).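 Further: potency for reduction of bacterial viability or growth.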 In kind it is functional, organism-based. Particulars: read-out: EC50.
The target in test [8] is Cytochrome P450 3A4 (Homo sapiens, UniProt P08684).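 Further: CYP3A4 tested as one member of a cytochrome P450 panel screen.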
Sequence of Cytochrome P450 3A4 (P08684 whole entry): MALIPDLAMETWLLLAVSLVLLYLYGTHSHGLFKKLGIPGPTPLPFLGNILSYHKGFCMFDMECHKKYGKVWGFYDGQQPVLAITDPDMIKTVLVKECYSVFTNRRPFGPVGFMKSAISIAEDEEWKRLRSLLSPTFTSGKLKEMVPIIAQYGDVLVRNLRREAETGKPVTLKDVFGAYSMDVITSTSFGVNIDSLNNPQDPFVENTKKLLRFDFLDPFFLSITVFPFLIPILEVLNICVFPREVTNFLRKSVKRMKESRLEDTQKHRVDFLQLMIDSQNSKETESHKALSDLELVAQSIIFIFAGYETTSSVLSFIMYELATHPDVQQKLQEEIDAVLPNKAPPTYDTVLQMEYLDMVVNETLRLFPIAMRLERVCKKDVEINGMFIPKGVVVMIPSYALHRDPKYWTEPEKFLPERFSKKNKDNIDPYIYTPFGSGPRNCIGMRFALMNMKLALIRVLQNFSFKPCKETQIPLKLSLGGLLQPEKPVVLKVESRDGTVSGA
Test [9] deals with Cytochrome P450 2C19 (Homo sapiens, UniProt P33261). Nature of the test: Cytochrome panel assay with activity outcomes. Panel member name: p450-cyp2c19 Compounds with AC50 equal or less than 10 uM are considered active. In kind it is functional. Particulars: read-out: AC50.
Sequence of Cytochrome P450 2C19 (P33261 whole entry): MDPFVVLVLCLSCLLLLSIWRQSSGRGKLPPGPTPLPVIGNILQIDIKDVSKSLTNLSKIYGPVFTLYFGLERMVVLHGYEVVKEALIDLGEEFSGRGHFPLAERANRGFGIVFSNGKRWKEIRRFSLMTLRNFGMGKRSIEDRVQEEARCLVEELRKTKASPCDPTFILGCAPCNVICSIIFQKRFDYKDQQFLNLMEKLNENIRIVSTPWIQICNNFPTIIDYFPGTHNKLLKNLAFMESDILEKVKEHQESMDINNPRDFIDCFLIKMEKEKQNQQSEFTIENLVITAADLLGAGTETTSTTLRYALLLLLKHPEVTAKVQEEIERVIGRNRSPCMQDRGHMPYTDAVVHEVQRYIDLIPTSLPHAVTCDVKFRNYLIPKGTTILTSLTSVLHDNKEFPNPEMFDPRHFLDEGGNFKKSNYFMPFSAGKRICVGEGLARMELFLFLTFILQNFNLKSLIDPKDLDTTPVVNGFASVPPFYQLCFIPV

Sequence of Cytochrome P450 2C9 (P11712 whole entry): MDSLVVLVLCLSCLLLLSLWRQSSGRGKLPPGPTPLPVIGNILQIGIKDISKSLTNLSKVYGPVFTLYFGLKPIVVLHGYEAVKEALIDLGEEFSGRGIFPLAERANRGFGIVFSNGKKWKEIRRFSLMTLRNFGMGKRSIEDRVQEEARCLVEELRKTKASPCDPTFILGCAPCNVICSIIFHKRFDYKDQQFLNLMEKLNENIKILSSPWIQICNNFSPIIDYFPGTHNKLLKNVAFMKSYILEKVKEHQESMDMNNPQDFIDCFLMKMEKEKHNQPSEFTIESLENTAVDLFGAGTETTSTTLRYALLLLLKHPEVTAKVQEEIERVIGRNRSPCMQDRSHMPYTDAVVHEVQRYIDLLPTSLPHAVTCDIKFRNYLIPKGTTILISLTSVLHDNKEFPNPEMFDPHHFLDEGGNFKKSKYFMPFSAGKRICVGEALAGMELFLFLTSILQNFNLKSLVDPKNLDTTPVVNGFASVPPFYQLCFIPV

Regarding `CC(C)CNS(=O)(=O)c1ccc(CCC(=O)N2CCOCC2)cc1`, in test [1], the EC50 was > 195 µM (not active).

With `Cc1oc(-c2cccs2)nc1CN1CCN(Cc2ccc(F)c(F)c2)C(CCO)C1` (stereo not drawn), the EC50 in test [2] was > 38 µM (not active); in [3] it was > 150 µM (inactive).

In the case of `COc1ccccc1CNCC(O)(c1ccc(Cl)cc1)c1ccc(Cl)cc1`, in [4], the AC50 was 10 µM (inconclusive).

As for `CN(CCC(=O)O)S(=O)(=O)c1ccccc1`, in test [4], the AC50 is 3.16 µM (inconclusive).

Take `CCCCCCCCCCCCCCCC[N+](C)(C)CCN(Cc1ccc(OC)cc1)c1ncccn1` [THONZONIUM]: the AC50 in [5] was 15.8 µM (inconclusive); in test [4], 20 µM (inconclusive).

For `COCCCC/C(=N\OCCN)c1ccc(C(F)(F)F)cc1` [FLUVOXAMINE MALEATE], the EC50 in test [1] is recorded as > 195 µM (not active).

For `Cc1noc(NS(=O)(=O)c2ccc(N3Cc4ccccc4C3=O)cc2)c1C`, the EC50 in test [1] was > 195 µM (not active).

As to `O=C(Nc1ccccc1)OCN1C(=O)c2ccccc2C1=O`, the EC50 was > 38 µM (not active) in [2] and > 150 µM (inactive) in test [3].

For `Cc1cc(C)c(C#N)c(SCC(=O)NC(C)(C)C)n1`, the EC50 in [1] is given as > 195 µM (not active).

`COc1cccc2c(=O)n(CC(=O)NCCc3ccccc3)ccc12`: in test [1], the EC50 is > 195 µM (not active).

For `Cc1cccc(-n2nc(C(=O)c3ccco3)cc(-c3nc4ccccc4[nH]3)c2=N)c1`, the 50% effective concentration (EC50) is 2.49 µM (active) in test [6], > 38 µM (not active) in test [2], > 160 µM (inactive) in [3] and 5.95 µM (active) in test [7].

As for `O=C(CCS(=O)(=O)c1cccc2nsnc12)N1CCN(C(=O)c2ccco2)CC1`, the results for the 50% effective concentration (EC50) in test [2] and in test [3] were > 38 µM (not active) and > 160 µM (inactive), respectively.

Take `CSc1ccc(/C=C/C(=O)Nc2ccccc2)cc1`: the EC50 in [2] is > 38 µM (not active); in test [3] it was > 150 µM (inactive).

Take `CN(C)CCCc1cc(C(=O)Nc2ccc(-c3ccncc3)cc2)ccc1O` [GR-55562]: the AC50 in [8] is 1.26 µM (inconclusive); in test [9] it was 31.6 µM (inconclusive); in test [4], 39.8 µM (inconclusive).

Take `CCCCSC1=C(C#N)C(c2ccccc2C)CC(=O)N1` (stereo not drawn): the concentration giving a half-maximal response (EC50) in test [1] is reported as > 195 µM (not active).

Turning to `CCNc1ncc2nc(CCc3ccccc3)c(=O)n(Cc3ccc(F)cc3)c2n1`, the AC50 in test [4] is 3.16 µM (inconclusive).

In the case of `O=C(O)c1cc(S(=O)(=O)Nc2ccc3c(c2)OCCO3)c(Cl)cc1Cl`, in [1], the EC50 is 2.54 µM (active).

`CCOC(=O)C(CC)/C(C)=N\NC(=O)c1ccccc1O` (stereo not drawn): the EC50 in test [2] is > 38 µM (not active); in test [3] it was > 160 µM (inactive).

`COC(=O)N1CCC[C@@]2(CCN(C(c3ccccc3)c3ccccc3)C2)C1`: the results for the AC50 in test [5], in test [9] and in test [4] were 25.1 µM (inconclusive), 39.8 µM (inconclusive) and 12.6 µM (inconclusive), respectively.

For `CC(C)c1ccc(NC(=O)Nc2cc3sccc3n2C)cc1`, the EC50 in test [1] was > 195 µM (not active).

As to `Cc1ccc2nc(O)c(CN(C(=O)c3cccc([N+](=O)[O-])c3)C(C)C)cc2c1`, the EC50 in [1] was > 195 µM (not active).

Turning to `COc1ccccc1N(C)S(=O)(=O)c1ccc(C(=O)NC(C)c2ccccc2)cc1` (stereo not drawn), the EC50 in [1] was > 195 µM (not active).

On to `COc1ccc(C(=O)NCCN2CCOCC2)c(OC)c1OC`, for which the EC50 in [2] was > 38 µM (not active); in [3] it was > 150 µM (inactive).

For `O=C(CC1C(=O)NCCN1Cc1ccccc1F)NC1CCCCCC1` (stereo not drawn), the EC50 in test [1] is 24.1 µM (active).

`Cc1cc2ccc(OC(=O)c3ccc(NC(=N)N)cc3)cc2oc1=O`: in test [4], the AC50 was 2.51 µM (inconclusive).

Consider `O=C(CCCCCN1C(=O)c2ccccc2C1=O)NCc1ccccn1`, for which the concentration at half-maximal activity (AC50) was 25.1 µM (inconclusive) in test [8], 31.6 µM (inconclusive) in test [5] and 14.1 µM (inconclusive) in test [4].

Consider `COCCn1c(=S)[nH]c2cc(C(=O)NC(C)C)ccc2c1=O`, for which the AC50 in test [4] is 3.16 µM (inconclusive).

Turning to `CN[C@H](CC(=O)O)C(=O)O` [N-METHYL-D-ASPARTIC ACID (NMDA)], in test [4], the AC50 was 39.8 µM (inconclusive).

`COCC(=O)N1CCC2(CC1)CN(Cc1cc(C(F)(F)F)cc(C(F)(F)F)c1)C2`: the concentration at half-maximal activity (AC50) was 12.6 µM (inconclusive) in test [5], 20 µM (inconclusive) in test [9] and 25.1 µM (inconclusive) in test [4].

`Cc1ccc(C(=O)C(OC(=O)CCC(=O)Nc2cccc(C)c2)c2ccccc2)cc1` (stereo not drawn): the AC50 in test [4] was 17.8 µM (inconclusive).

Turning to `Cc1ccc2c(ccc[n+]2CC(=O)c2ccccc2)c1`, the EC50 in test [2] is > 38 µM (not active); in test [3], > 150 µM (inactive).

`O=C(O)Cn1c(=O)c2c3c(sc2n(Cc2ccc(Cl)cc2Cl)c1=O)CCCC3`: in [1], the EC50 is reported as > 195 µM (not active).

`CCOc1ccccc1NC(=O)C(=O)NCC1CCCN1CC` (stereo not drawn): the AC50 in test [4] was 15.8 µM (inconclusive).

For the molecule `O=C(CCS(=O)(=O)c1cccc2nsnc12)NC1CCCCC1`, the AC50 in test [4] was 25.1 µM (inconclusive).

For `COC(=O)c1ccc2c(=O)n(-c3ccccc3)c(=S)[nH]c2c1`, the EC50 in [1] is reported as > 195 µM (not active).

For the molecule `Cc1cc(S(=O)(=O)N2CCCC2)ccc1OCC(=O)NCc1ccccc1`, the EC50 in test [1] is listed as > 195 µM (not active).

For the molecule `CCN1CCN(c2cc(C)c3cc(NC(=S)N4CCCC(C)C4)ccc3n2)CC1` (stereo not drawn), the EC50 in test [1] is 11 µM (active).

`Clc1cccc(N/N=C/c2ccncc2)c1`: the results for the EC50 in test [2] and in test [3] were > 38 µM (not active) and > 160 µM (inactive), respectively.

One may read the EC50 as the concentration needed to bring the measured effect to its halfway point. As usually defined, the AC50 is the concentration at which the activity in the assay is half-maximal.

The values above are taken from ChEMBL document CHEMBL1201862, “PubChem BioAssay data set” (2004).
